Results on 14 compounds are retold here after US20250136595A1, “ACYLATED HETEROCYCLIC QUINAZOLINE DERIVATIVES AS INHIBITORS OF ERBB2” (Enliven Inc., priority 2022, published 2025).

One experiment has as its target Ba/F3 ERBB2 YVMA (Homo sapiens, UniProt P04626, DUP772-775, cells depend on it). Put plainly: Cell viability assay (CellTiter Glo) in Ba/F3 cells engineered to express ERBB2 YVMA. The experiment is classed as cell-based, mouse. The following applies: Ba/F3 cells expressing human ERBB2 YVMA mutant, 72 hours, % viability, read-out: Ba/F3 ERBB2 YVMA IC50. As for the experimental part:
Cells were treated with compounds, and cell viability was measured as a metric of kinase inhibition.
The Ba/F3 cell line is IL-3-dependent mouse cell line derived from the C3H mouse strain. Ba/F3 cell lines were engineered to express human ERBB2 or EGFR kinases, rendering the cells IL-3 independent. The lines were generated via retroviral transduction utilizing a Moloney murine leukemia virus (MMLV) promoter, and constructs are stably integrated into the cell genome. The sequences of the ERBB2 and EGFR genes used were NCBI Reference Sequences NM_004448.3 and NM_005228.3, respectively.
Similarly, Ba/F3 cell lines engineered to express EGFR, ERBB2, or ERBB2 mutants were grown, harvested, counted and seeded at 3000 cells per well in 96-well plates for the data sets shown in Tables B3-B4. A subset of wells contained media only (low control, “LC”).
Table B1 provides the growth media and number of cells seeded per well for the each cell line.
Compounds were dissolved in DMSO and serially diluted. Serially-diluted compound or a DMSO only control (high control, “HC”) was added to the plated cells in each well. […] The final proportion of DMSO never exceeded 0.1%.
Plates were placed in a 37° C., 5% CO2 incubator for 72 hours. Plates were then removed from the incubator and equilibrated for 15 minutes at room temperature. 40 μl of CellTiter Glo reagent (Promega) was added to measure the relative level of metabolically active cells by quantifying intracellular ATP concentrations. Plates were incubated for 30 minutes at room temperature, and luminescence was measured. Percent viability was normalized to a vehicle control only using the following formula: % viability=100×(Lumsample−LumLC)/(LumHC−LumLC). Graphical curves were fitted using a nonlinear regression model with a sigmoidal dose response.
For orientation: ATP-based viability assays read luminescence as a measure of living cells.

Experiment [1] has as its target T1, phosphorylated EGFR (pEGFR) (Homo sapiens, UniProt P00533).
T1 construct: performed to measure phosphorylated EGFR levels using A431 cells; endogenous in cells; host or cells: A431
Briefly: Detection of phosphorylated EGFR (pEGFR) in EGF-stimulated A431 cells (AlphaLISA). The settings on record: A431 cells (10% FBS), 4 hours incubation, EGF 30 ng/mL for 10 minutes. It is filed as cell-based. As to the method:
Enzyme-linked immunosorbent assays (ELISA) were performed to measure phosphorylated EGFR levels using A431 cells (10% FBS). A431 (1.0*10^4 cells/40 μl/well) cells were seeded in 384 well. Compounds were dissolved in DMSO, serially diluted in DMSO and then were added, mixed, and incubated for 4 hours at 37° C., 5% CO2. Following the 4-hours incubation, cells were stimulated for 10 minutes with EGF (Invitrogen, cat #PHG0311) at a final concentration of 30 ng/mL in the incubator. The media was aspirated and cells were lysed in 10 μL lysis buffer with protease and phosphatase inhibitors (PerkinElmer, cat #ALSU-PEGFR-A50K). The plates were placed on a shaker for 5 minutes and then incubated for 30 min at 4° C. for complete lysis. The lysate was transferred to an Optiplate (Perkin Elmer, cat #6007290).
Acceptor mix (PerkinElmer, cat #ALSU-PEGFR-A50K) was prepared just before use and 5 μL was dispensed to all the wells, followed by a 1.5-2 h incubation at room temperature in dark. The donor mix (PerkinElmer, cat #ALSU-PEGFR-A50K) was prepared under low light conditions prior to use and 5 μl of donor mix was added to all the wells under subdued lighting or green filters. The plates were placed on a shaker for 5 min, sealed, and incubated overnight at room temperature in dark. Plates were read on the Envision (PerkinElmer) using standard AlphaLISA settings.
The percentage of inhibition on EGFR phosphorylation was calculated following equation: % Inhibition=100×(LumHC−LumSample)/(LumHC−LumLC). The low and high controls (LC/HC) are generated from lysate from wells with cells treated with DMSO or […] Staurosporine (BioAustralis, cat #BIA-S1086), […]. IC50 values were calculated by fitting the Curve using XLfit (v5.3.1.3), equation 201: Y=Bottom+ (Top−Bottom)/(1+10^((LogIC50−X)*HillSlope)).
For orientation: In Alpha technology, singlet oxygen from a donor bead excites a nearby acceptor bead.

Experiment [2] addresses T2, phosphorylated ERBB2 (pERBB2) (Homo sapiens, UniProt P04626).
T2 construct: endogenous in cells; host or cells: BT-474
Put plainly: Detection of phosphorylated ERBB2 (pERBB2) by ELISA in BT-474 cells. The settings on record: four hour incubation with compound. It is filed as cell-based. As for the experimental part:
BT-474 cells were seeded into a 96-well at 2.0*10^4 cells/100 μl/well. Compounds were dissolved and serially diluted in DMSO. The compounds were then were added, mixed, and incubated for four hours at 37° C., 5% CO2. Compounds were added using four-fold dilutions at final concentrations ranging from 10 μM to 0.01 nM. Following the four hour incubation with compounds, cell lysates were prepared. Plates were centrifuged for 5 min at 3000 RPM, and supernatant was removed from each well. Cells were washed 3 times by resuspension in 150 μl PBS, followed by centrifugation and removal of the supernatant, as above. […] Cells were incubated with lysis buffer for 1 hour at 4° C., and then stored at -80° C. Enzyme-linked immunosorbent assays (ELISA) were performed to measure phosphorylated ERBB2 levels. […] The next day, plates were washed with PBS+0.05% Tween20 (PBST). 150 μl of 5% BSA blocking solution was added for 1 hour at room temperature, with shaking. Plates were washed with PBST. Cell lysates were thawed and 100 μl of lysate was added to the ELISA plate. The plates were incubated for 2 hours at room temperature, with shaking. […] Plates were incubated for 1 hour at room temperature, with shaking. Plates were then washed with PBST, and 100 μl TMB substrate solution (R&D Systems, cat #DY999) was added. Plate were incubated in the dark for 20 minutes at room temperature. 50 μl of Stop solution (R&D Systems, cat #DY994) (50 μl) was added to each well and mixed. Optical density at 450 nm was read on an EnSpire plate reader (Perkin Elmer). The remaining kinase activity by calculated using the following formula: % Relative activity=100×([…]). The low and high control values (“LC” and “HC”) were generated from lysate from wells without cells or with cells treated with 0.1% DMSO, respectively.
(In general: An ELISA detects its analyte on a solid surface through an enzyme-linked reagent.)

Each structure is given as a SMILES string.

In general, IC50 refers to the concentration at which inhibition is half-maximal.

T1 sequence (P00533 25-1210): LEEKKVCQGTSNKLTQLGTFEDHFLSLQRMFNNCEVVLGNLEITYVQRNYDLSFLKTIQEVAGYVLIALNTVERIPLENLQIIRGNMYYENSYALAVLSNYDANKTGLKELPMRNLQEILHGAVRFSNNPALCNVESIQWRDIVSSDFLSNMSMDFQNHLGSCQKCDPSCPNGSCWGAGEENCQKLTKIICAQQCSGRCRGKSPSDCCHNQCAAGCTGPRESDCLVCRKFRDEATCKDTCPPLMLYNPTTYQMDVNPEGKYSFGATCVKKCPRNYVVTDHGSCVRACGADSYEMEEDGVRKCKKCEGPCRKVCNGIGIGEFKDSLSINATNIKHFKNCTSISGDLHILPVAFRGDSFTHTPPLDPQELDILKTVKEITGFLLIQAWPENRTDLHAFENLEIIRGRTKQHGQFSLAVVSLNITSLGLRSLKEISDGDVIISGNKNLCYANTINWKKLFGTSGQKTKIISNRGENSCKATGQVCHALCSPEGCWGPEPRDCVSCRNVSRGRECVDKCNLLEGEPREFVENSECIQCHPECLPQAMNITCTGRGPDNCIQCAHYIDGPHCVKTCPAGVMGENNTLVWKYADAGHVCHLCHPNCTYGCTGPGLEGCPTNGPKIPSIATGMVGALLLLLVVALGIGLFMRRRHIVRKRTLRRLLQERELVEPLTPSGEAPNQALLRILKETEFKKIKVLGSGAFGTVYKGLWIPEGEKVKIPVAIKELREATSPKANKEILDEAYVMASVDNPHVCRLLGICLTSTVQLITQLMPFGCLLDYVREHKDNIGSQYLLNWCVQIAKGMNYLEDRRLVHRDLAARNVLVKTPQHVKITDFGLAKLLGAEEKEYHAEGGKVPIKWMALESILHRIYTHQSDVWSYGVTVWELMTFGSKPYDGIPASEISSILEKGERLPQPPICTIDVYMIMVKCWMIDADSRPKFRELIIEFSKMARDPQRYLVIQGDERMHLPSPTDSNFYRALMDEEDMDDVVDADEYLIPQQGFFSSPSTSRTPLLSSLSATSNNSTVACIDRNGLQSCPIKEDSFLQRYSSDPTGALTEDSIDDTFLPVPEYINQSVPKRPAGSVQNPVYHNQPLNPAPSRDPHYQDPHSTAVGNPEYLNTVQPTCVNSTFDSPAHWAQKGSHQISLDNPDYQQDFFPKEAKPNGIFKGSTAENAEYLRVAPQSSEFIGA
Sequence of Ba/F3 ERBB2 YVMA (P04626 with tags, fused parts or gaps DUP772-775): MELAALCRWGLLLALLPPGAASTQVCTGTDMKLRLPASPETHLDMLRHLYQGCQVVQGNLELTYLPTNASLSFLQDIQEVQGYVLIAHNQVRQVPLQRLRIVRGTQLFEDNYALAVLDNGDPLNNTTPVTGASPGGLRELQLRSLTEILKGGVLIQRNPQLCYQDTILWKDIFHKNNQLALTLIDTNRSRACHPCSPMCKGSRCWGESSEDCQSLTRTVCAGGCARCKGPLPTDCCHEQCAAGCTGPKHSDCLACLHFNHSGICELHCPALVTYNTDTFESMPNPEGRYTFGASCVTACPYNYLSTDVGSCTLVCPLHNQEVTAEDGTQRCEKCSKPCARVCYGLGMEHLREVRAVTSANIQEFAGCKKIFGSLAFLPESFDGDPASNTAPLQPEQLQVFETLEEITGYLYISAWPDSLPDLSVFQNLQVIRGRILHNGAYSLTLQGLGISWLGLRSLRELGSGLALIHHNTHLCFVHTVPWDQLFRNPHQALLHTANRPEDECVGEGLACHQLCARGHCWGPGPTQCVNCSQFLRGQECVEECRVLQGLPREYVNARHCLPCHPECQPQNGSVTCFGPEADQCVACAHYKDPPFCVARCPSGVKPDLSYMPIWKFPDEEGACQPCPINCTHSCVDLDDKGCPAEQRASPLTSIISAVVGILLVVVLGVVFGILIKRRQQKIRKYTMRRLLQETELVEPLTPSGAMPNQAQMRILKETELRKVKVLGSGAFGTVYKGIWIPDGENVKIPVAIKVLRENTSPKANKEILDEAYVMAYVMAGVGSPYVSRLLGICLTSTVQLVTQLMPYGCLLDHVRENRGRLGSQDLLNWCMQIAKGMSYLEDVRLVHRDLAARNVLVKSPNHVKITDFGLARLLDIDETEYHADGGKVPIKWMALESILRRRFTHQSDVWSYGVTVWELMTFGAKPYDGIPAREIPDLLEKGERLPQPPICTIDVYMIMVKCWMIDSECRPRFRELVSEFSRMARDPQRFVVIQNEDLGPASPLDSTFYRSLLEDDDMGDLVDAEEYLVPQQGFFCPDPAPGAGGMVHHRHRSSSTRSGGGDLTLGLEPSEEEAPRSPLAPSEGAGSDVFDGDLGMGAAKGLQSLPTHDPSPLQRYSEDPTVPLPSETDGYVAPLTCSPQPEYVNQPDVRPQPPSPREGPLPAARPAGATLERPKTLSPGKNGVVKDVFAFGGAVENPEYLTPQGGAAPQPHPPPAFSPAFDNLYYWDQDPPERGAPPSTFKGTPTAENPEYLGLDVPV
T2 sequence (P04626 23-1255): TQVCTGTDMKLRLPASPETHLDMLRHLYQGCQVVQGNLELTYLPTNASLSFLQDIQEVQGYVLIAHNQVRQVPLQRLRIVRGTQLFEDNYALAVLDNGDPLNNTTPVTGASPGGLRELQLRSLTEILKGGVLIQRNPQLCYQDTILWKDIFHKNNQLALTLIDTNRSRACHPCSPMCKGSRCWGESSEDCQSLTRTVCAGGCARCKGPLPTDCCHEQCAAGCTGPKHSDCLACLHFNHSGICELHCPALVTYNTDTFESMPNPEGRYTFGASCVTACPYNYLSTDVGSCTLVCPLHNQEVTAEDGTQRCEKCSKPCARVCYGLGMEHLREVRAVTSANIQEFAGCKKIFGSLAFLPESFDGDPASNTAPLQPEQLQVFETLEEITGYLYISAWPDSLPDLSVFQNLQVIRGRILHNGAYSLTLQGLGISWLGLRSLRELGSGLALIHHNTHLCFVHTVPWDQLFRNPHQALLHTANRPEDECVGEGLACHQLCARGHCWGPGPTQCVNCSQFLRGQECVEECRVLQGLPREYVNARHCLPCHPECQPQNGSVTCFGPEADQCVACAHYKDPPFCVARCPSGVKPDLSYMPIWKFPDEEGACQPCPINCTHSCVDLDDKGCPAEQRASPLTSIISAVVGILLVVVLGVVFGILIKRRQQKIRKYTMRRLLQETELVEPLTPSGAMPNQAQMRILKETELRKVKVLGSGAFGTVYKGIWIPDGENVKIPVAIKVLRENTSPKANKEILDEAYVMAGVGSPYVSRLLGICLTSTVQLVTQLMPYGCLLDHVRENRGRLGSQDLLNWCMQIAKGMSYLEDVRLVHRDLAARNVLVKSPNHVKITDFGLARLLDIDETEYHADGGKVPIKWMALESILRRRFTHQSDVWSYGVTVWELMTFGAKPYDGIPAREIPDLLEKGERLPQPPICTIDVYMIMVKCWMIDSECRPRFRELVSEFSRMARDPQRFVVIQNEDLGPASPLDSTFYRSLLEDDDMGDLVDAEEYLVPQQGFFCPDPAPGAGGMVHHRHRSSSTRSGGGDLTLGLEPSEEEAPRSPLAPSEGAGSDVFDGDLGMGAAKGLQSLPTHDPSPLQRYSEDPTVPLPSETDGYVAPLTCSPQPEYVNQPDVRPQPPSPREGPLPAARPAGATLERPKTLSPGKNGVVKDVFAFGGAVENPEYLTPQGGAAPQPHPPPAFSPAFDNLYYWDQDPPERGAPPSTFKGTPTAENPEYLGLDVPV

For the compound `C=CC(=O)N1CC[C@H](Oc2ccc3ncnc(Nc4ccc(Oc5ccn6ncnc6c5)c(C)c4)c3c2)C1` [Compound 1, (S)-1-(3-((4-((4-([1,2,4]triazolo[1,5-a]pyridin-7-yloxy)-3-methylphenyl)amino)quinazolin-6-yl)oxy)pyrrolidin-1-yl)prop-2-en-1-one], the GI50 at Ba/F3 ERBB2 YVMA turned out to be 8.98 nM. Further, the results for the IC50 in experiment [1] and in experiment [2] were 328 nM and 5.68 nM, respectively.
For `C=CC(=O)N1CCN(c2cc3c(Nc4ccc(OC5CCN(C(=O)C6CCCC6)CC5)c(C)c4)ncnc3cn2)CC1` [Compound 2, 1-(4-(4-((4-((1-(cyclopentanecarbonyl)piperidin-4-yl)oxy)-3-methylphenyl)amino)pyrido[3,4-d]pyrimidin-6-yl)piperazin-1-yl)prop-2-en-1-one] the same measures were 20.3 nM, 2690 nM and 48.2 nM.
In the same order, the values of `C=CC(=O)N1CCN(c2cc3c(Nc4ccc(OC5CCN(C(=O)CC(C)(C)C)CC5)c(C)c4)ncnc3cn2)CC1` [Compound 3, 3,3-dimethyl-1-{4-[2-methyl-4-({6-[4-(prop-2-enoyl)piperazin-1-yl]pyrido[3,4-d]pyrimidin-4-yl}amino)phenoxy]piperidin-1-yl}butan-1-one] are 40.2 nM, 1680 nM and 43 nM.
In the same order, the values of `C=CC(=O)N1CCN(c2ccc3ncnc(Nc4ccc(Oc5ccn6ncnc6c5)c(C)c4)c3n2)CC1` [Compound 4, 1-(4-{4-[(3-methyl-4-{[1,2,4]triazolo[1,5-a]pyridin-7-yloxy}phenyl)amino]pyrido[3,2-d]pyrimidin-6-yl}piperazin-1-yl)prop-2-en-1-one] are 8.19 nM, 371 nM and 8.44 nM.
As to `C=CC(=O)N1CC2CC(C1)N2c1ccc2ncnc(Nc3ccc(Oc4ccn5ncnc5c4)c(C)c3)c2n1` [Compound 5, 1-(6-{4-[(3-methyl-4-{[1,2,4]triazolo[1,5-a]pyridin-7-yloxy}phenyl)amino]pyrido[3,2-d]pyrimidin-6-yl}-3,6-diazabicyclo[3.1.1]heptan-3-yl)prop-2-en-1-one], at Ba/F3 ERBB2 YVMA, the GI50 was determined as 18 nM. The half-inhibitory concentration (IC50) was found to be 476 nM in experiment [1] and 17 nM in experiment [2].
In the same order, the values of `C=CC(=O)N1CC2CC1CN2c1ccc2ncnc(Nc3ccc(Oc4ccn5ncnc5c4)c(C)c3)c2n1` (stereo not drawn) [Compound 6, 1-(5-{4-[(3-methyl-4-{[1,2,4]triazolo[1,5-a]pyridin-7-yloxy}phenyl)amino]pyrido[3,2-d]pyrimidin-6-yl}-2,5-diazabicyclo[2.2.1]heptan-2-yl)prop-2-en-1-one] are 5.65 nM, 134 nM and 13.9 nM.
In the same order, the values of `C=CC(=O)N1CCN(c2ccc3ncnc(Nc4ccc(Oc5ccn6ncnc6c5)c(C)c4)c3c2)CC1` [Compound 7, 1-(4-{4-[(3-methyl-4-{[1,2,4]triazolo[1,5-a]pyridin-7-yloxy}phenyl)amino]quinazolin-6-yl}piperazin-1-yl)prop-2-en-1-one] are 8.65 nM, 694 nM and 13 nM.
Take `CC#CC(=O)N1CCN(c2ccc3ncnc(Nc4ccc(Oc5ccn6ncnc6c5)c(C)c4)c3n2)CC1` [Compound 8, 1-(4-{4-[(3-methyl-4-{[1,2,4]triazolo[1,5-a]pyridin-7-yloxy}phenyl)amino]pyrido[3,2-d]pyrimidin-6-yl}piperazin-1-yl)but-2-yn-1-one]: the GI50 on Ba/F3 ERBB2 YVMA amounted to 18.9 nM. In addition, the IC50 in experiment [1] was determined as 5170 nM; in experiment [2], 27.1 nM.
For `C=CC(=O)N1CCN(c2ccc3ncnc(Nc4ccc(Oc5ccn6ncnc6c5)c(C)c4)c3n2)C[C@@H]1C` [Compound 9, 1-[(2S)-2-methyl-4-{4-[(3-methyl-4-{[1,2,4]triazolo[1,5-a]pyridin-7-yloxy}phenyl)amino]pyrido[3,2-d]pyrimidin-6-yl}piperazin-1-yl]prop-2-en-1-one] the same measures were 7.5 nM, 1030 nM and 10.7 nM.
For the compound `C=CC(=O)N1CCN(c2ccc3ncnc(Nc4ccc(Oc5ccn6ncnc6c5)c(C)c4)c3n2)C[C@H]1C` [Compound 10, 1-[(2R)-2-methyl-4-{4-[(3-methyl-4-{[1,2,4]triazolo[1,5-a]pyridin-7-yloxy}phenyl)amino]pyrido[3,2-d]pyrimidin-6-yl}piperazin-1-yl]prop-2-en-1-one], at Ba/F3 ERBB2 YVMA, the GI50 was found to be 4.61 nM. Besides, the half-inhibitory concentration (IC50) in experiment [1] came to 294 nM; in experiment [2], 8.74 nM.
For `C=CC(=O)N1CCN(c2ccc3ncnc(Nc4ccc(Oc5ccn6ncnc6c5)c(C)c4)c3n2)[C@H](C)C1` [Compound 11, 1-[(3R)-3-methyl-4-{4-[(3-methyl-4-{[1,2,4]triazolo[1,5-a]pyridin-7-yloxy}phenyl)amino]pyrido[3,2-d]pyrimidin-6-yl}piperazin-1-yl]prop-2-en-1-one] the same measures were 17.9 nM, 2360 nM and 16.3 nM.
Consider `C=CC(=O)N1CCN(c2ccc3ncnc(Nc4ccc(Oc5ccn6ncnc6c5)c(C)c4)c3n2)[C@@H](C)C1` [Compound 12, 1-[(3S)-3-methyl-4-{4-[(3-methyl-4-{[1,2,4]triazolo[1,5-a]pyridin-7-yloxy}phenyl)amino]pyrido[3,2-d]pyrimidin-6-yl}piperazin-1-yl]prop-2-en-1-one], for which the GI50 on Ba/F3 ERBB2 YVMA turned out to be 7.49 nM. The IC50 worked out at 1180 nM in experiment [1] and 13.6 nM in experiment [2].
Turning to `CC#CC(=O)N1C2CC1CN(c1ccc3ncnc(Nc4ccc(Oc5ccn6ncnc6c5)c(C)c4)c3n1)C2` [Compound 29, 1-(3-{4-[(3-methyl-4-{[1,2,4]triazolo[1,5-a]pyridin-7-yloxy}phenyl)amino]pyrido[3,2-d]pyrimidin-6-yl}-3,6-diazabicyclo[3.1.1]heptan-6-yl)but-2-yn-1-one], at Ba/F3 ERBB2 YVMA, the GI50 stood at 35.9 nM. In addition, in experiment [1], the IC50 came to 5430 nM.
For `Cc1cc(Nc2ncnc3ccc(NC4=NC(C)(C)CO4)cc23)ccc1Oc1ccn2ncnc2c1` [Tucatinib, tucatinib, reference compound], the GI50 at Ba/F3 ERBB2 YVMA was 356 nM.
